Laboratory results: US12162820B2 (TAIWANJ PHARMACEUTICALS CO., LTD., priority 2019, dated 2024)

Key:
Format in all cases: biochemical
[1] = biological target: T1, HDAC1 (Homo sapiens, UniProt Q13547); experiment: HDAC Inhibition Screening Assay (FLUOR DE LYS Fluorimetric Drug Discovery Kit), HDAC1; settings: for inhibition at 2 µM: 2 μM compound; for inhibition at 10 µM: 10 μM compound; for inhibition at 50 µM: 50 μM compound
T1 construct: purchased Enzo Life Sciences
Method: (§1) The HDAC1/HDAC2/HDAC3 in vitro activities are detected by Enzo Life Sciences' HDAC1/HDAC2/HDAC3 Fluorimetric Drug Discovery Kit. The assay is based on the FLUOR DE LYS® Substrate and FLUOR DE LYS® Developer combination. The assay procedure has two steps. First, the FLUOR DE LYS® Substrate, which comprises an acetylated lysine side chain, is incubated with HDAC1/HDAC2/HDAC3, respectively. Deacetylation of the substrate sensitizes the substrate so that, in the second step, treatment with the FLUOR DE LYS® Developer produces a fluorophore. The signals of the test compounds (Compounds 1˜83; at concentrations of 2 μM, 10 μM and 50 μM) in 96-well plates are detected at 360 nm or 485 nm excitation and 460 nm or 530 nm emission with a Molecular Devices SpectraMax i3 Imaging Cytometer. The HDAC1/HDAC2/HDAC3 activities are expressed in percentage of basal control minus baseline control.

[2] = biological target: T2, HDAC2 (Homo sapiens, UniProt Q92769); experiment: HDAC Inhibition Screening Assay (FLUOR DE LYS Fluorimetric Drug Discovery Kit), HDAC2; settings: for inhibition at 2 µM: 2 μM compound; for inhibition at 10 µM: 10 μM compound; for inhibition at 50 µM: 50 μM compound
T2 construct: purchased Enzo Life Sciences
Method: as §1

[3] = biological target: T3, HDAC3 (Homo sapiens, UniProt O15379); experiment: HDAC Inhibition Screening Assay (FLUOR DE LYS Fluorimetric Drug Discovery Kit), HDAC3; settings: for inhibition at 2 µM: 2 μM compound; for inhibition at 10 µM: 10 μM compound; for inhibition at 50 µM: 50 μM compound
T3 construct: purchased Enzo Life Sciences
Method: as §1

[4] = biological target: T4, ATX (autotaxin) (Homo sapiens, UniProt Q13822); experiment: Autotaxin Inhibition Screening Assay (choline release from LPC, LPC-CR); settings: for inhibition at 4 µM: 4 μM compound; for inhibition at 20 µM: 20 μM compound; for inhibition at 50 µM: 50 μM compound
T4 construct: purchased Cayman 10803
Method: ATX (autotaxin) activity was measured by choline release from LPC in presence or absence of test compounds (Compounds 1˜83; at concentrations of 4 μM, 20 μM and 50 μM). Twenty (20) ng ATX (10803, Cayman, MI, USA) was incubated with 100 μM 14:0 LPC (855575P, Avanti, AL, USA) in a final volume of 100 μL buffer containing 50 mM Tris pH 8.0, 0.01% Triton X-100, 50 mM CaCl2, 1 unit/ml choline oxidase, 2 unit/ml horseradish peroxidase (HRP), 2 mM homovanilic acid (HVA). The relative amount of released choline was measured by HVA fluorescence in a 96-well plate. Fluorescent intensity was determined at λex/λem=320/450 nm every 60 sec for 90 min with a SpectraMax i3 (Molecular Devices, CA, USA). Data analysis was performed using GraphPad Prism (GraphPad, La Jolla CA, USA). Inhibition %=[1−(SlopeTA−SlopeBlank)/(SlopeVehicle−SlopeBlank)]×100% HDAC Inhibition Screening Assay

T1 sequence (Q13547 whole entry): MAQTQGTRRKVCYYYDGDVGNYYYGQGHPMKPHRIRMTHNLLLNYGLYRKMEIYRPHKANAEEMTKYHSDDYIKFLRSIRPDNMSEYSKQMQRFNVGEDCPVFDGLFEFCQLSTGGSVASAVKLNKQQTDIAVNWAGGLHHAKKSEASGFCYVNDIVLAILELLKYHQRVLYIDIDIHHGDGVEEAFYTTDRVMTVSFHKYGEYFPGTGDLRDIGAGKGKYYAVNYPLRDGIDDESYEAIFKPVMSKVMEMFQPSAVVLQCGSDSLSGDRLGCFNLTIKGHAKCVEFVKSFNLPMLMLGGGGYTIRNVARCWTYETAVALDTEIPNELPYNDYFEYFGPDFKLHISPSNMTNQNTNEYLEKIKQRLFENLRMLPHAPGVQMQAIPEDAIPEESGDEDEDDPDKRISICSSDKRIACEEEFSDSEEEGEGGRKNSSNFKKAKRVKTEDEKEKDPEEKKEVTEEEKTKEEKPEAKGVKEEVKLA
T3 sequence (O15379 whole entry): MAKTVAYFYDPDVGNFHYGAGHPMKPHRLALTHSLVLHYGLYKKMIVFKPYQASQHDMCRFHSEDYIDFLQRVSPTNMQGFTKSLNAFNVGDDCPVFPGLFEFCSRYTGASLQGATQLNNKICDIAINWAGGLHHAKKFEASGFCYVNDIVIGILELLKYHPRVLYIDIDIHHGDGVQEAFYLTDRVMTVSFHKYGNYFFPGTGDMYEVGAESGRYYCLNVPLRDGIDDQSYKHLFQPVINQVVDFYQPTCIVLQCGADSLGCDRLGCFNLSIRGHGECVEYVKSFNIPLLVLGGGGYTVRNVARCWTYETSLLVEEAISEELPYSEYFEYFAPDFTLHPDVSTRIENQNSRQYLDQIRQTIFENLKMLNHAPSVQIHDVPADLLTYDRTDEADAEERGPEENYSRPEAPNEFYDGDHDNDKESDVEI
T3 sequence (O75376 395-489 partner limits assumed): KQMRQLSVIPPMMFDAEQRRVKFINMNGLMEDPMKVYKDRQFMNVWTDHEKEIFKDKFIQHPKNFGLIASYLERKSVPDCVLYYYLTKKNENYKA
T2 sequence (Q92769 whole entry): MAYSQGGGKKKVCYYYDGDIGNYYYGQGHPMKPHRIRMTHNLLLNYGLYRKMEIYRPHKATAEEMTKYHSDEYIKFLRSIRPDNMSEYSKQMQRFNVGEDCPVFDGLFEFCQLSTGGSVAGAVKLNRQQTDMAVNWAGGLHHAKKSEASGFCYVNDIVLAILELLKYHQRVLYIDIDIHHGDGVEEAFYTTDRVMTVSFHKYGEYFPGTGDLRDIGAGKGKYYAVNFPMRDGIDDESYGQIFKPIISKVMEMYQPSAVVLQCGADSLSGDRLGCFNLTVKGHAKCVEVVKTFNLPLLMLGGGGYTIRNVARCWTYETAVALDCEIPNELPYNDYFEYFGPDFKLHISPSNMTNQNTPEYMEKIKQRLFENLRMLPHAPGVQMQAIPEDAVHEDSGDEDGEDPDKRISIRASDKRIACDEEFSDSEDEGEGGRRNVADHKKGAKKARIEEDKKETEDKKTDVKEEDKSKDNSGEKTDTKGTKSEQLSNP

Structure (SMILES) | inhibition at 2 µM [1] [%] | inhibition at 10 µM [1] [%] | inhibition at 50 µM [1] [%] | inhibition at 2 µM [2] [%] | inhibition at 10 µM [2] [%] | inhibition at 50 µM [2] [%] | inhibition at 2 µM [3] [%] | inhibition at 10 µM [3] [%] | inhibition at 50 µM [3] [%] | inhibition at 4 µM [4] [%] | inhibition at 20 µM [4] [%] | inhibition at 50 µM [4] [%]
O=C(CCCCC(=O)Nc1ccc2c(c1)CC/C(=C\c1cc(C(F)(F)F)cc(C(F)(F)F)c1)C2=O)NO [Compound 14, (E)-N1-(6-(3,5-bis(trifluoromethyl)benzylidene)-5-oxo-5,6,7,8-tetrahydronaphthalen-2-yl)-N6-hydroxyadipamide] | < 50 | 50 to 80 | > 80 | < 50 | 50 to 80 | > 80 | < 50 | < 50 | > 80 | > 80 | > 80 | > 80
O=C(/C=C/c1ccc2c(c1)CCC2NC(=O)OCc1cc(C(F)(F)F)cc(C(F)(F)F)c1)NO (stereo not drawn) [Compound 15, 3,5-bis(trifluoromethyl)benzyl (E)-(5-(3-(hydroxyamino)-3-oxoprop-1-en-1-yl)-2,3-dihydro-1H-inden-1-yl)carbamate] | < 50 | 50 to 80 | > 80 | < 50 | 50 to 80 | > 80 | < 50 | 50 to 80 | > 80 | < 50 | < 50 | < 50
Cc1ccc(S(=O)(=O)NC2CCc3cc(/C=C/C(=O)NO)ccc32)cc1 (stereo not drawn) [Compound 16, (E)-N-hydroxy-3-(1-((4-methylphenyl)sulfonamido)-2,3-dihydro-1H-inden-5-yl)acrylamide] | > 80 | > 80 | > 80 | > 80 | > 80 | > 80 | > 80 | > 80 | > 80 | < 50 | < 50 | < 50
Nc1cc(F)ccc1NC(=O)/C=C/c1ccc2c(c1)CCC2NS(=O)(=O)c1cc(C(F)(F)F)cc(C(F)(F)F)c1 (stereo not drawn) [Compound 17, (E)-N-(2-amino-4-fluorophenyl)-3-(1-((3,5-bis(trifluoromethyl)phenyl)sulfonamido)-2,3-dihydro-1H-inden-5-yl)acrylamide] | < 50 | < 50 | < 50 | < 50 | < 50 | < 50 | < 50 | < 50 | < 50 | < 50 | < 50 | < 50
O=C(/C=C/c1ccc2c(c1)CCC2NS(=O)(=O)c1cc(C(F)(F)F)cc(C(F)(F)F)c1)NO (stereo not drawn) [Compound 18] | < 50 | 50 to 80 | > 80 | 50 to 80 | 50 to 80 | > 80 | < 50 | 50 to 80 | > 80 | < 50 | < 50 | < 50
COc1ccc(S(=O)(=O)NC2CCc3cc(/C=C/C(=O)Nc4ccc(F)cc4N)ccc32)cc1 (stereo not drawn) [Compound 19, (E)-N-(2-amino-4-fluorophenyl)-3-(1-((4-methoxyphenyl)sulfonamido)-2,3-dihydro-1H-inden-5-yl)acrylamide] | < 50 | < 50 | < 50 | < 50 | < 50 | < 50 | < 50 | < 50 | < 50 | < 50 | < 50 | < 50
COc1ccc(S(=O)(=O)NC2CCc3cc(/C=C/C(=O)NO)ccc32)cc1 (stereo not drawn) [Compound 20, (E)-N-hydroxy-3-(1-((4-methoxyphenyl)sulfonamido)-2,3-dihydro-1H-inden-5-yl)acrylamide] | 50 to 80 | > 80 | > 80 | 50 to 80 | > 80 | > 80 | > 80 | > 80 | > 80 | < 50 | < 50 | < 50
Nc1cc(F)ccc1NC(=O)/C=C/c1ccc2c(c1)CCC2NC(=O)c1cc(C(F)(F)F)cc(C(F)(F)F)c1 (stereo not drawn) [Compound 21, (E)-N-(5-(3-((2-amino-4-fluorophenyl)amino)-3-oxoprop-1-en-1-yl)-2,3-dihydro-1H-inden-1-yl)-3,5-bis(trifluoromethyl)benzamide] | < 50 | < 50 | < 50 | < 50 | < 50 | < 50 | < 50 | < 50 | < 50 | < 50 | < 50 | < 50
O=C(/C=C/c1ccc2c(c1)CCC2NC(=O)c1cc(C(F)(F)F)cc(C(F)(F)F)c1)NO (stereo not drawn) [Compound 22, (E)-N-(5-(3-(hydroxyamino)-3-oxoprop-1-en-1-yl)-2,3-dihydro-1H-inden-1-yl)-3,5-bis(trifluoromethyl)benzamide] | 50 to 80 | > 80 | > 80 | 50 to 80 | > 80 | > 80 | 50 to 80 | > 80 | > 80 | < 50 | < 50 | < 50
Nc1cc(F)ccc1NC(=O)/C=C/c1ccc2c(c1)CCCC2NC(=O)c1cc(C(F)(F)F)cc(C(F)(F)F)c1 (stereo not drawn) [Compound 23] | < 50 | < 50 | < 50 | < 50 | < 50 | < 50 | < 50 | < 50 | < 50 | < 50 | < 50 | < 50
O=C(/C=C/c1ccc2c(c1)CCCC2NC(=O)c1cc(C(F)(F)F)cc(C(F)(F)F)c1)NO (stereo not drawn) [Compound 24, (E)-N-(6-(3-(hydroxyamino)-3-oxoprop-1-en-1-yl)-1,2,3,4-tetrahydronaphthalen-1-yl)-3,5-bis(trifluoromethyl)benzamide] | < 50 | < 50 | 50 to 80 | < 50 | < 50 | 50 to 80 | < 50 | < 50 | < 50 | < 50 | < 50 | < 50
COc1ccc(C(=O)NC2CCc3cc(/C=C/C(=O)NO)ccc32)cc1 (stereo not drawn) [Compound 25, (E)-N-(5-(3-(hydroxyamino)-3-oxoprop-1-en-1-yl)-2,3-dihydro-1H-inden-1-yl)-4-methoxybenz amide] | > 80 | > 80 | > 80 | > 80 | > 80 | > 80 | > 80 | > 80 | > 80 | < 50 | < 50 | < 50
